Among the data in ChEMBL document CHEMBL5647681, “Lack of the aryl hydrocarbon receptor leads to impaired activation of AKT/protein kinase B and enhanced sensitivity to apoptosis induced via the intrinsic pathway” (J Pharmacol Exp Ther, 2007) are Activity values, retold here.

The structures appear in SMILES notation. Calls of active or inactive are those of the source. No cut-off for these calls is given here.

Data set [1] concerns the target Aryl hydrocarbon receptor (Mus musculus) (UniProt P30561). Description: Antagonist activity at AHR in wild type mouse Hepa1c1c7 cells assessed as reduction in inhibition of Akt/PKB phosphorylation at 10 uM incubated for 24 hrs before UV-irradiation and measured after 30 to 60 mins by Western blot analysis. Conditions: hepa1c1c7, 10 µM. In general terms: In western blotting, separated proteins are transferred to a membrane and probed.

Data set [2] in a line: Toxicity in AHR deficient mouse LA1 cells assessed as induction of apoptosis by measuring increase in caspase-3 activity at 0.1 to 1 uM incubated for 24 hrs in absence of UV-irradiation by caspase 3 Assay. Conditions: la1, 24 h.
Data set [3] concerns the target Aryl hydrocarbon receptor (Mus musculus) (UniProt P30561). Description: Antagonist activity at AHR in wild type mouse Hepa1c1c7 cells assessed as reduction in inhibition of EGFR phosphorylation at 10 uM incubated for 24 hrs before UV-irradiation and measured after 30 mins by Western blot analysis. Conditions: hepa1c1c7, 24 h.
Data set [4] deals with LA1. Description: Potentiation of UV-irradiation-induced apoptosis in AHR deficient mouse LA1 cells assessed as increase in caspase-3 activity at 0.1 to 1 uM incubated for 24 hrs before UV-irradiation for 24 hrs by caspase 3 Assay. Conditions: dose 0.1-1 µM, time 48.0 hrs.
Data set [5] addresses Aryl hydrocarbon receptor (Mus musculus) (UniProt P30561). Nature of the data set: Antagonist activity at AHR in wild type mouse Hepa1c1c7 cells assessed as potentiation of UV-irradiation-induced apoptosis by measuring increase in caspase-3 activity at 0.1 to 1 uM incubated for 24 hrs before UV-irradiation for 24 hrs by caspase 3 Assay. Conditions: hepa1c1c7, 48 h.

Aryl hydrocarbon receptor (Mus musculus), sequence (P30561 whole entry, looked up): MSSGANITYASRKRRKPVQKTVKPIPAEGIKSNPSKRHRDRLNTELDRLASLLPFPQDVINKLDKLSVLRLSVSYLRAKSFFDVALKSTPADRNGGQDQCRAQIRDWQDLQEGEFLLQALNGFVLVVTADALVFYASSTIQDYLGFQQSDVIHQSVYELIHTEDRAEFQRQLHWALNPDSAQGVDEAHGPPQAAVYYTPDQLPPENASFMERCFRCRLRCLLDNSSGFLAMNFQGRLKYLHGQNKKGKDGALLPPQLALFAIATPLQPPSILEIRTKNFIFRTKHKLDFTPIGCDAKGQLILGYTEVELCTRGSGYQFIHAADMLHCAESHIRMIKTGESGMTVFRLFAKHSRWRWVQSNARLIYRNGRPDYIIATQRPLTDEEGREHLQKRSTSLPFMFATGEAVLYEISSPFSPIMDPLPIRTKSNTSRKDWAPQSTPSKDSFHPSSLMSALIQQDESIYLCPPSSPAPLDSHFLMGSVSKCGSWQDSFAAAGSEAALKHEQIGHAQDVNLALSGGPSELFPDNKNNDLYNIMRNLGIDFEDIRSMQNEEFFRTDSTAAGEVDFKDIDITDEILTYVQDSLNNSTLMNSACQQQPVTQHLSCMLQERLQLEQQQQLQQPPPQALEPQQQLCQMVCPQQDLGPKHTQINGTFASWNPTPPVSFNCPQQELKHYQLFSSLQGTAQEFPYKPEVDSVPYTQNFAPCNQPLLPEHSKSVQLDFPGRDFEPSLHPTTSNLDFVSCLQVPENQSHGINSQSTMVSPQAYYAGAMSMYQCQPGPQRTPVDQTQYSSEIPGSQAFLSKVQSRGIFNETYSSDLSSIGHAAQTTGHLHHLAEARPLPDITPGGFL

`COc1cc(-c2cc(=O)c3ccccc3o2)ccc1[N+](=O)[O-]`: the Activity entry in data set [1] was “Active”; in data set [2] it was “Non-Toxic”; in data set [3] it was “Active”; in data set [5], “Active”. In data set [4], the outcome was Active.
